According to ChEMBL document CHEMBL1201862, “PubChem BioAssay data set” (2004):
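Method: 48-hour compound exposure of cells in 96-well plates, five concentrations, linear interpolation of endpoints. GI50: concentration for 50% inhibition of growth.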 Activity calls are given as the source filed them. Cut-off read from the data, not from the text of the source: active = GI50 up to about 1.1 µM and inactive = higher.

Experiments:
Assay in all cases: NCI anticancer screen, dose series, 48 h
A498 = tested on: A498
A549 = tested on: A549
ACHN = tested on: ACHN
CCRF-CEM = tested on: CCRF-CEM
HCT-15 = tested on: HCT-15
HT-29 = tested on: HT-29
IGROV-1 = tested on: IGROV-1
MCF7 = tested on: MCF7
MDA-N = tested on: MDA-N
MOLT-4 = tested on: MOLT-4
Malme-3M = tested on: Malme-3M
OVCAR-3 = tested on: OVCAR-3
OVCAR-4 = tested on: OVCAR-4
PC-3 = tested on: PC-3
SR = tested on: SR
T47D = tested on: T47D
U-251 = tested on: U-251
UACC-257 = tested on: UACC-257
UACC-62 = tested on: UACC-62
UO-31 = tested on: UO-31

`COc1cc(C(c2cc3c(cc2O)OCO3)N2CCCCC2)cc(OC)c1OC` (stereo not given) was tested, and the GI50 (A498) was 19.5 µM (inactive), the GI50 (A549) was 20.9 µM (inactive) and the GI50 (ACHN) was 17.1 µM (inactive). The GI50 (CCRF-CEM) was 1.85 µM (inactive), the GI50 (HCT-15) was 15.9 µM and the GI50 (HT-29) was 17 µM (inactive). The GI50 (IGROV-1) was 17.7 µM (inactive), the GI50 (MCF7) was 13.6 µM (inactive) and the GI50 (MDA-N) was 7.28 µM (inactive). The GI50 (MOLT-4) was 2.15 µM (inactive), the GI50 (Malme-3M) was 12.8 µM (inactive) and the GI50 (OVCAR-3) was 13.8 µM (inactive). For the same compound, the GI50 (OVCAR-4) was 11.9 µM (inactive), the GI50 (PC-3) was 15.8 µM (inactive) and the GI50 (SR) was 2.33 µM (inactive). The GI50 (T47D) was 22.4 µM (inactive), the GI50 (U-251) was 15.8 µM (inactive) and the GI50 (UACC-257) was 12.5 µM (inactive). The GI50 (UACC-62) was 16.4 µM (inactive) and the GI50 (UO-31) was 14.8 µM (inactive).
`CCOc1ccc(-n2c(=O)c3nn4c(=O)n(-c5ccc(OCC)cc5)c(=O)c4nn3c2=O)cc1` was tested, and the GI50 (A498) was 18.6 µM (inactive), the GI50 (A549) was > 100 µM (inactive) and the GI50 (ACHN) was > 100 µM (inactive). The GI50 (CCRF-CEM) was > 10 µM (inactive), the GI50 (HCT-15) was greater than 100 µM and the GI50 (HT-29) was > 100 µM (inactive). The GI50 (IGROV-1) was > 100 µM (inactive), the GI50 (MCF7) was > 100 µM (inactive) and the GI50 (MDA-N) was > 100 µM (inactive). For the same compound, the GI50 (MOLT-4) was > 100 µM (inactive), the GI50 (Malme-3M) was > 100 µM (inactive) and the GI50 (OVCAR-3) was > 100 µM (inactive). For the same compound, the GI50 (OVCAR-4) was > 100 µM (inactive), the GI50 (PC-3) was > 100 µM (inactive) and the GI50 (SR) was > 100 µM (inactive). For the same compound, the GI50 (T47D) was > 100 µM (inactive), the GI50 (U-251) was > 100 µM (inactive) and the GI50 (UACC-257) was > 100 µM (inactive). The GI50 (UACC-62) was > 100 µM (inactive) and the GI50 (UO-31) was > 100 µM (inactive).
`O=C1CCC2(CC1CCSc1ccccc1)OCCO2` (stereo not given) was tested, and the GI50 (A498) was > 100 µM (inactive), the GI50 (A549) was > 100 µM (inactive) and the GI50 (ACHN) was > 100 µM (inactive). For the same compound, the GI50 (CCRF-CEM) was > 100 µM (inactive), the GI50 (HCT-15) was greater than 100 µM and the GI50 (HT-29) was > 100 µM (inactive). For the same compound, the GI50 (IGROV-1) was > 100 µM (inactive), the GI50 (MCF7) was > 100 µM (inactive) and the GI50 (MDA-N) was > 100 µM (inactive). For the same compound, the GI50 (MOLT-4) was 81.8 µM (inactive), the GI50 (Malme-3M) was > 100 µM (inactive) and the GI50 (OVCAR-3) was > 100 µM (inactive). For the same compound, the GI50 (OVCAR-4) was > 100 µM (inactive), the GI50 (PC-3) was > 100 µM (inactive) and the GI50 (SR) was > 100 µM (inactive). For the same compound, the GI50 (T47D) was > 100 µM (inactive), the GI50 (U-251) was > 100 µM (inactive) and the GI50 (UACC-257) was > 100 µM (inactive). The GI50 (UACC-62) was > 100 µM (inactive) and the GI50 (UO-31) was > 100 µM (inactive).
In the case of `Cc1ccc(C2=CC(=O)/C(=C\C(=O)c3ccc(Br)cc3)O2)c(C)c1`, the GI50 (A498) is reported as 19.9 µM (inactive), the GI50 (A549) is reported as 18.7 µM (inactive) and the GI50 (ACHN) is reported as 4.57 µM (inactive). For the same compound, the GI50 (CCRF-CEM) was 2.69 µM (inactive), the GI50 (HCT-15) was 12.2 µM and the GI50 (HT-29) was 7.89 µM (inactive). The GI50 (IGROV-1) was 18.4 µM (inactive), the GI50 (MCF7) was 5.33 µM (inactive) and the GI50 (MDA-N) was 6.11 µM (inactive). For the same compound, the GI50 (MOLT-4) was 3.52 µM (inactive), the GI50 (Malme-3M) was 10.5 µM (inactive) and the GI50 (OVCAR-3) was 5.3 µM (inactive). For the same compound, the GI50 (OVCAR-4) was 9.42 µM (inactive), the GI50 (PC-3) was 5.35 µM (inactive) and the GI50 (SR) was 2.36 µM (inactive). The GI50 (T47D) was 8.79 µM (inactive), the GI50 (U-251) was 18 µM (inactive) and the GI50 (UACC-257) was 16.9 µM (inactive). For the same compound, the GI50 (UACC-62) was 9.48 µM (inactive) and the GI50 (UO-31) was 9.02 µM (inactive).
With `Cc1ccc2nc(Cl)c(/C=N/N3C(=O)/C(=C/Cc4ccco4)N=C3c3ccccc3)cc2c1` the GI50 (A498) was 5.06 µM (inactive), the GI50 (A549) was 36.4 µM (inactive) and the GI50 (ACHN) was 72.3 µM (inactive). The GI50 (CCRF-CEM) was > 100 µM (inactive), the GI50 (HCT-15) was 27.7 µM and the GI50 (HT-29) was 32.7 µM (inactive). For the same compound, the GI50 (IGROV-1) was 23.1 µM (inactive), the GI50 (MCF7) was 40.3 µM (inactive) and the GI50 (MDA-N) was 16.9 µM (inactive). The GI50 (MOLT-4) was 58.6 µM (inactive), the GI50 (Malme-3M) was 63.5 µM (inactive) and the GI50 (OVCAR-3) was 71.1 µM (inactive). The GI50 (OVCAR-4) was 51.6 µM (inactive), the GI50 (PC-3) was 61.4 µM (inactive) and the GI50 (SR) was > 69.3 µM (inactive). For the same compound, the GI50 (T47D) was > 50 µM (inactive), the GI50 (U-251) was 50.8 µM (inactive) and the GI50 (UACC-257) was 32.7 µM (inactive). For the same compound, the GI50 (UACC-62) was 60.5 µM (inactive) and the GI50 (UO-31) was 23.7 µM (inactive).
`O=c1c(O)c(-c2cc(O)c(O)c(O)c2)oc2cc(O)cc(O)c12` [MYRICETIN] was tested, and the GI50 (A498) was > 100 µM (inactive), the GI50 (A549) was 33.8 µM (inactive) and the GI50 (ACHN) was 79.8 µM (inactive). The GI50 (CCRF-CEM) was 64.6 µM (inactive), the GI50 (HCT-15) was 24.8 µM and the GI50 (HT-29) was 20.3 µM (inactive). The GI50 (IGROV-1) was 33.9 µM (inactive), the GI50 (MCF7) was 18.5 µM (inactive) and the GI50 (MDA-N) was 10 µM (inactive). For the same compound, the GI50 (MOLT-4) was 54.6 µM (inactive), the GI50 (Malme-3M) was > 100 µM (inactive) and the GI50 (OVCAR-3) was 30.6 µM (inactive). The GI50 (OVCAR-4) was 16.3 µM (inactive), the GI50 (PC-3) was > 100 µM (inactive) and the GI50 (SR) was 40.7 µM (inactive). For the same compound, the GI50 (T47D) was > 100 µM (inactive), the GI50 (U-251) was 18.7 µM (inactive) and the GI50 (UACC-257) was 29.2 µM (inactive). For the same compound, the GI50 (UACC-62) was 39.5 µM (inactive) and the GI50 (UO-31) was 90.8 µM (inactive).
